MIC data for six compounds are collected here from DBAASP.

≈ marks a conversion by molar mass, not a printed value. Where “and” joins values, the source holds several entries; their conditions need not be identical. Identical values can stand only once. Bounds are passed on as bounds.

Test systems include Botrytis cinerea; Alternaria alternata; Cladosporium herbarum; Escherichia coli D21; Escherichia coli E423-17; Escherichia coli PFH1; Pseudomonas aeruginosa; Salmonella enterica; Escherichia coli BL21; Escherichia coli PFH13; Escherichia coli PFH12; Staphylococcus xylosus; Escherichia coli PFL6; Citrobacter koseri; Escherichia coli JM109.
What all share (experiment): ≥ marks a high value that may be exact or a test limit, other limits are often not marked, values filed in µg/mL are converted to µM
In test [1] the test system is Salmonella enterica subsp. enterica serovar Typhimurium ATCC 14028.
In test [2] the test system is Escherichia coli ATCC 11219.
Test [3] has as its system Klebsiella pneumoniae ATCC 10031.
The subject of test [4] is Staphylococcus aureus ATCC 6538.
The subject of test [5] is Pseudomonas aeruginosa ATCC 13388.
For test [6], the system named is Xanthomonas vesicatoria DSM 50861.
Test [7] relates to Pseudomonas corrugata DSM 7228.
The subject of test [8] is Pectobacterium carotovorum subsp. carotovorum DSM 30168.
Test [9] deals with Pseudomonas syringae pv. syringae DSM 10604.
Test [10] deals with Pseudomonas syringae pv. tomato DC3000.
Test [11] deals with Clavibacter michiganensis subsp. michiganensis DSM 46294.
The subject of test [12] is Pseudomonas aeruginosa ATCC 27853.
The test system of test [13] is Acinetobacter baumannii ATCC 19606.
Test [14] concerns Escherichia coli ATCC 25922.
Test [15] deals with Candida albicans ATCC 10231.
Test [16] has as its system Enterobacter cloacae ATCC 49141.
The test system of test [17] is Staphylococcus aureus II ATCC 6538P.
Test [18] relates to Pseudomonas aeruginosa E411-17.
The subject of test [19] is Staphylococcus aureus ATCC 25923.
Test [20] concerns Staphylococcus aureus USA 300.
Test [21] has as its system Klebsiella pneumoniae E406-17.
Test [22] deals with Acinetobacter baumannii B28-16.
Test [23] deals with Klebsiella pneumoniae CCRC 10694.
Test [24] relates to Staphylococcus aureus CCRC 12652.
Test [25] deals with Streptococcus alactolyticus.
Test [26] concerns Enterococcus faecalis ATCC 29212.
In test [27] the test system is Vibrio parahaemolyticus CCRC 10806.
For test [28], the system named is Bacillus cereus ATCC 11778.
In test [29] the test system is Staphylococcus aureus CCRC 15211.
Test [30] concerns Salmonella typhimurium CCRC 12947.
Test [31] deals with Listeria monocytogenes ATCC 15313.
The subject of test [32] is Salmonella enterica subsp. enterica serovar Enteritidis ATCC 13076.
In test [33] the test system is Staphylococcus aureus 90857.

Usually MIC stands for the lowest concentration that inhibits growth of the organism. Read a low MIC as a more susceptible organism. With `CC[C@H](C)[C@H](NC(=O)CN)C(=O)N[C@@H](Cc1cnc[nH]1)C(=O)N[C@@H](CC(=O)O)C(=O)N[C@H](C(=O)N[C@@H](CC(C)C)C(=O)N[C@@H](CCCCN)C(=O)N[C@@H](Cc1ccc(O)cc1)C(=O)NCC(=O)N[C@@H](CCCCN)C(=O)N[C@@H](CCCN=C(N)N)C(=O)N[C@@H](CO)C(N)=O)[C@@H](C)CC` [GIHDILKYGKRS], the MIC was 20 µM (≈ 27.7 µg/mL) in test [1]; 10 µM (≈ 13.9 µg/mL) in test [2]; 10 µM (≈ 13.9 µg/mL) in [3]; 10 µM (≈ 13.9 µg/mL) in test [4]; 20 µM (≈ 27.7 µg/mL) in [5].
Consider `CC[C@H](C)[C@H](NC(=O)[C@H](C)NC(=O)[C@H](CCCCN)NC(=O)[C@H](CCCCN)NC(=O)[C@H](CC(C)C)NC(=O)[C@H](Cc1ccccc1)NC(=O)[C@H](Cc1cnc[nH]1)NC(=O)[C@H](C)NC(=O)[C@H](CC(C)C)NC(=O)[C@H](C)N)C(=O)N[C@@H](CCCCN)C(=O)N[C@@H](CCCCN)C(N)=O` [ALAHFLKKAIKK], for which the MIC in test [6] is 29.2 µM (≈ 40 µg/mL); against Botrytis cinerea, at least 73.1 µM; in test [7], 14.6 µM (≈ 20 µg/mL); in [8], 29.2 µM (≈ 40 µg/mL); in the test with Alternaria alternata it was at least 73.1 µM; in test [9], 3.66 µM (≈ 5 µg/mL). Besides, the minimal inhibitory concentration (MIC) was 7.31 µM (≈ 9.99 µg/mL) in test [10], 29.2 µM (≈ 40 µg/mL) in test [11] and at least 73.1 µM in the test on Cladosporium herbarum.
For `CC(C)C[C@H](NC(=O)[C@H](Cc1cnc[nH]1)NC(=O)[C@H](CCCN=C(N)N)NC(=O)[C@H](CC(C)C)NC(=O)[C@H](CC(C)C)NC(=O)[C@H](Cc1cnc[nH]1)NC(=O)[C@H](CCCN=C(N)N)NC(=O)[C@H](CC(C)C)NC(=O)[C@H](CC(C)C)NC(=O)[C@H](Cc1cnc[nH]1)NC(=O)[C@H](CCCN=C(N)N)NC(=O)[C@H](CC(C)C)NC(=O)[C@H](C)NC(=O)[C@H](CC(=O)O)NC(=O)[C@@H](N)CC(=O)O)C(=O)O` [DDALRHLLRHLLRHL], the MIC in the test on Escherichia coli D21 was at least 100 µM; in [12], 100 µM (≈ 188 µg/mL); in test [13], above 100 µM; in [14], 100 µM (≈ 188 µg/mL); in test [15], 25 µM and > 12.5 µM; in test [16], at least 100 µM. Also, the MIC in test [17] is at least 100 µM.
`NC(=O)[C@H](CCCN=C(N)N)NC(=O)[C@H](Cc1c[nH]c2ccccc12)NC(=O)[C@H](Cc1c[nH]c2ccccc12)NC(=O)[C@H](CCCN=C(N)N)NC(=O)[C@H](Cc1c[nH]c2ccccc12)NC(=O)[C@H](Cc1c[nH]c2ccccc12)NC(=O)[C@H](CCCN=C(N)N)NC(=O)[C@@H](N)CCCN=C(N)N` [RRWWRWWR]: the MIC in [18] was 8 µM (≈ 11.1 µg/mL); in test [12] it was 3.6 µM (≈ 5 µg/mL); in test [14] it was 5.41 µM (≈ 7.49 µg/mL); in the test on Escherichia coli E423-17, 8 µM (≈ 11.1 µg/mL); in test [19], 1.8 µM (≈ 2.5 µg/mL); in [20], 5.66 µM (≈ 7.84 µg/mL). For the same compound, the MIC in test [21] and in test [22] was at least 32 µM in each case.
`CC[C@H](C)[C@H](N)C(=O)N[C@@H](CC(N)=O)C(=O)N[C@@H](CC(C)C)C(=O)N[C@@H](CCCCN)C(=O)N[C@@H](C)C(=O)N[C@H](C(=O)N[C@@H](C)C(=O)N[C@@H](C)C(=O)N[C@@H](CC(C)C)C(=O)N[C@@H](C)C(=O)N[C@@H](CCCCN)C(=O)N[C@@H](CCCCN)C(=O)N[C@@H](CC(C)C)C(=O)N[C@@H](Cc1ccccc1)C(N)=O)[C@@H](C)CC` [INLKAIAALAKKLF]: the MIC in test [23] was 21.1 µM (≈ 32 µg/mL); in test [12], at least 32 µM; with Escherichia coli PFH1, 3.74 µM (≈ 5.65 µg/mL); in test [24], 10.6 µM (≈ 16 µg/mL); in test [25] it was 5.28 µM (≈ 7.99 µg/mL); in test [15] it was 4 µM (≈ 6.05 µg/mL). Moreover, the MIC was at least 32 µM in test [26]; 63.4 µM (≈ 95.9 µg/mL) in the test on Pseudomonas aeruginosa; 10.6 µM (≈ 16 µg/mL) in the test on Salmonella enterica; 10.6 µM (≈ 16 µg/mL) in test [27]; 2.64 µM (≈ 4 µg/mL) against Escherichia coli BL21; 4 µM (≈ 6.05 µg/mL) in test [19]. In addition, the minimal inhibitory concentration (MIC) is 8 µM (≈ 12.1 µg/mL) in test [28]; 3.74 µM (≈ 5.65 µg/mL) with Escherichia coli PFH13; 3.74 µM (≈ 5.65 µg/mL) in the test on Escherichia coli PFH12; 21.1 µM (≈ 32 µg/mL) in test [29]; 0.991 µM (≈ 1.5 µg/mL) with Staphylococcus xylosus; 5.28 µM (≈ 7.99 µg/mL) against Escherichia coli PFL6. Further, the minimal inhibitory concentration (MIC) in test [30] worked out at 21.1 µM (≈ 32 µg/mL); against Citrobacter koseri it was 2.64 µM (≈ 4 µg/mL); in test [31], 4 µM (≈ 6.05 µg/mL); against Escherichia coli JM109, 5.28 µM (≈ 7.99 µg/mL); in [32] it was 4 µM (≈ 6.05 µg/mL).
As for `CC(C)C[C@H](NC(=O)[C@H](CC(C)C)NC(=O)[C@H](CCCN=C(N)N)NC(=O)[C@H](CCCCN)NC(=O)[C@H](CC(C)C)NC(=O)[C@H](CC(C)C)NC(=O)[C@H](CCCCN)NC(=O)[C@H](CC(C)C)NC(=O)[C@H](CCCN=C(N)N)NC(=O)[C@H](CCCCN)NC(=O)[C@H](CCCCN)NC(=O)[C@@H](N)CCCN=C(N)N)C(N)=O` [RKKRLKLLKRLL], the MIC was found to be 0.0639 µM (≈ 0.0999 µg/mL) in [6]; 0.0639 µM (≈ 0.0999 µg/mL) in [7]; 6.25 µM (≈ 9.78 µg/mL) in [33]; 6.39 µM (≈ 9.99 µg/mL) in [8]; 0.0639 µM (≈ 0.0999 µg/mL) in test [9]; 6.39 µM (≈ 9.99 µg/mL) in [10]. Also, the MIC in test [11] was found to be 1.6 µM (≈ 2.5 µg/mL).
